In ChEMBL document CHEMBL5634109, “Synthesis and mechanism of action of new purine derivatives against triple negative breast cancer” (Eur J Med Chem, 2023):
The source made the active and inactive calls. The calls are words filed in the database; no cut-off is given here.

What was measured:
MDA-MB-231 [1] = test: Antiproliferative activity against human MDA-MB-231 cells assessed as reduction in viability at 10 uM incubated for 7.5 hrs by MTT assay; format: functional
MDA-MB-231 [2] = test: Induction of apoptosis in human MDA-MB-231 cells assessed as apoptotic cells at 4 uM incubated for 48 hrs by Annexin V-FITC/PI staining based analysis; format: functional
MDA-MB-231 [3] = test: Inhibition of cell migration human MDA-MB-231 cells at 0.01 to 0.4 uM incubated for 24 hrs by DAPI staining based analysis; format: functional; settings: dose 0.01-0.4 µM
MDA-MB-231 [4] = test: Antitumor activity against human MDA-MB-231 cells xenografted in nude mouse assessed as decrease in CD31 expression at 10 mg/kg, ip measured for 3 days by immunohistochemistry analysis; format: functional, organism-based; settings: time 3.0 day
[5] = Antiproliferative activity against human HEK293 cells assessed as reduction in cell viability measured for 48 hrs by MTT assay; format: toxicity, cell-based
MDA-MB-231 [6] = test: Antitumor activity against human MDA-MB-231 cells xenografted in nude mouse assessed as inhibition of proliferation of tumor cells at 10 mg/kg, ip measured for 3 days by H and E staining based analysis; format: functional, organism-based; settings: time 3.0 day
MDA-MB-231 [7] = test: Induction of apoptosis in human MDA-MB-231 cells assessed as increase in number of cell debris at 4 uM incubated for 48 hrs; format: functional, cell-based
PC-3 = test: Antiproliferative activity against human PC-3 cells assessed as reduction in cell viability measured for 48 hrs by MTT assay; format: functional, cell-based; settings: PC-3, 48 h
MDA-MB-231 [8] = test: Inhibition of cell migration human MDA-MB-231 cells assessed as migration distance at 25 uM incubated for 48 hrs by wound healing assay (reference value: 642.72 micrometer); format: functional
[9] = biological target: Casein kinase I isoform epsilon (Homo sapiens, UniProt P49674); test: Inhibition of CK1epsilon (unknown origin)
A549 = test: Antiproliferative activity against human A549 cells assessed as reduction in cell viability measured for 48 hrs by MTT assay; format: functional, cell-based; settings: A549, 48 h
MDA-MB-231 [10] = test: Induction of apoptosis in human MDA-MB-231 cells assessed as apoptotic cells at 40 uM incubated for 24 hrs by Annexin V-FITC/PI staining based analysis; format: functional
K562 = test: Antiproliferative activity against human K562 cells assessed as reduction in cell viability measured for 48 hrs by MTT assay; format: functional, cell-based; settings: K562, 48 h
[11] = Inhibition of PI3K/AKT/mTOR signaling pathway in human MDA-MB-231 cells assessed as decrease in mTOR expression at 1 to 4 uM incubated for 6 hrs by Western blot analysis; format: cell-based; settings: dose 1-4 µM
MDA-MB-231 [12] = test: Antiproliferative activity against human MDA-MB-231 cells assessed as reduction in viability at 4 uM incubated for 7.5 hrs by MTT assay; format: functional
MDA-MB-231 [13] = test: Antitumor activity against human MDA-MB-231 cells xenografted in nude mouse assessed as inhibition of lung metastasis in tumor at 10 mg/kg, ip measured for 3 days; format: functional, organism-based; settings: time 3.0 day
[14] = biological target: Dual specificity tyrosine-phosphorylation-regulated kinase 1A (Homo sapiens, UniProt Q13627); test: Inhibition of DYRK1A (unknown origin)
Cell membrane = test: Induction of mitochondrial membrane potential loss in human MDA-MB-231 cells assessed as increase in fluorescence intensity at 40 uM incubated for 48 hrs by TMRM dye based flow cytometry analysis (reference value: 97.5%)
MDA-MB-231 [15] = test: Induction of apoptosis in human MDA-MB-231 cells assessed as apoptotic cells at 4 uM incubated for 24 hrs by Annexin V-FITC/PI staining based analysis; format: functional
MDA-MB-231 [16] = test: Induction of apoptosis in human MDA-MB-231 cells assessed as apoptotic cells at 4 uM incubated for 12 hrs by Annexin V-FITC/PI staining based analysis; format: functional
MDA-MB-468 = test: Antiproliferative activity against human MDA-MB-468 cells assessed as reduction in cell viability measured for 48 hrs by MTT assay; format: functional, cell-based; settings: MDA-MB-468, 48 h
[17] = Antiproliferative activity against human HUVEC cells assessed as reduction in cell viability measured for 48 hrs by MTT assay; format: toxicity, cell-based
[18] = biological target: Cyclin-dependent kinase 7 (Homo sapiens, UniProt P50613); test: Inhibition of CDK7 (unknown origin)
[19] = biological target: Dual specificity protein kinase CLK1 (Homo sapiens, UniProt P49759); test: Inhibition of CLK1 (unknown origin)
MDA-MB-231 [20] = test: Antitumor activity against human MDA-MB-231 cells xenografted in nude mouse assessed as decrease in Ki67 expression at 10 mg/kg, ip measured for 3 days by immunohistochemistry analysis; format: functional, organism-based; settings: time 3.0 day
MDA-MB-231 [21] = test: Antitumor activity against human MDA-MB-231 cells xenografted in nude mouse assessed as reduction in tumor growth at 10 to 20 mg/kg, ip measured for 3 days; format: functional, organism-based; settings: dose 10-20 mg/kg, time 3.0 day
MDA-MB-231 [22] = test: Induction of apoptosis in human MDA-MB-231 cells assessed as apoptotic cells at 40 uM incubated for 12 hrs by Annexin V-FITC/PI staining based analysis; format: functional
HUVEC = test: Antiangiogenesis activity in HUVEC cells at 62.5 nM incubated for 12 hrs by microscopic analysis; format: functional, cell-based; settings: Homo sapiens
MDA-MB-231 [23] = test: Antitumor activity against human MDA-MB-231 cells xenografted in nude mouse assessed as inhibition of spleen metastasis in tumor at 10 mg/kg, ip measured for 3 days; format: functional, organism-based; settings: time 3.0 day
[24] = biological target: Dual specificity protein kinase CLK2 (Homo sapiens, UniProt P49760); test: Inhibition of CLK2 (unknown origin)
HT-29 = test: Antiproliferative activity against human HT-29 cells assessed as reduction in cell viability measured for 48 hrs by MTT assay; format: functional, cell-based; settings: HT-29, 48 h
MDA-MB-231 [25] = test: Induction of apoptosis in human MDA-MB-231 cells assessed as apoptotic cells at 40 uM incubated for 48 hrs by Annexin V-FITC/PI staining based analysis; format: functional
[26] = Inhibition of PI3K/AKT/mTOR signaling pathway in human MDA-MB-231 cells assessed as decrease in AKT expression at 1 to 4 uM incubated for 6 hrs by Western blot analysis; format: cell-based; settings: dose 1-4 µM
MDA-MB-231 [27] = test: Antitumor activity against human MDA-MB-231 cells xenografted in nude mouse assessed as decrease in tumor size at 10 to 20 mg/kg, ip measured for 3 days; format: functional, organism-based; settings: dose 10-20 mg/kg, time 3.0 day
MDA-MB-231 [28] = test: Antiproliferative activity against human MDA-MB-231 cells assessed as reduction in cell viability measured for 48 hrs by MTT assay; format: functional, cell-based; settings: MDA-MB-231, 48 h
[29] = Inhibition of PI3K/AKT/mTOR signaling pathway in human MDA-MB-231 cells assessed as increase in p38 phosphorylation at 2 to 4 uM incubated for 6 hrs by Western blot analysis; format: cell-based; settings: dose 2-4 µM
MDA-MB-231 [30] = test: Inhibition of cell migration human MDA-MB-231 cells assessed as migration distance at 25 uM incubated for 24 hrs by wound healing assay (reference value: 642.72 micrometer); format: functional
HCT-116 = test: Antiproliferative activity against human HCT-116 cells assessed as reduction in cell viability measured for 48 hrs by MTT assay; format: functional, cell-based; settings: HCT-116, 48 h

Sequence of Casein kinase I isoform epsilon (P49674 whole entry, canonical isoform): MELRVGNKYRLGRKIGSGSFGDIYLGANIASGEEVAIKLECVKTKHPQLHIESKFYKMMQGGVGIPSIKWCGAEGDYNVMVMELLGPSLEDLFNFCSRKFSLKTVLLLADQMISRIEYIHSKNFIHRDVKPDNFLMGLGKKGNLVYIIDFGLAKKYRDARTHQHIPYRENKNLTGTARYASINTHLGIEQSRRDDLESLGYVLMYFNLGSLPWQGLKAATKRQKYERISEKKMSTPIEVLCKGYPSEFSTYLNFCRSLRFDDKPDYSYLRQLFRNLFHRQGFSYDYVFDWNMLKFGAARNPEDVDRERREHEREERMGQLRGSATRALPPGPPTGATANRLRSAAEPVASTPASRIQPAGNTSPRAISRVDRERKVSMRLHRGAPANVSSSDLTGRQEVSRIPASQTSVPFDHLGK
Sequence of Dual specificity protein kinase CLK2 (P49760 whole entry): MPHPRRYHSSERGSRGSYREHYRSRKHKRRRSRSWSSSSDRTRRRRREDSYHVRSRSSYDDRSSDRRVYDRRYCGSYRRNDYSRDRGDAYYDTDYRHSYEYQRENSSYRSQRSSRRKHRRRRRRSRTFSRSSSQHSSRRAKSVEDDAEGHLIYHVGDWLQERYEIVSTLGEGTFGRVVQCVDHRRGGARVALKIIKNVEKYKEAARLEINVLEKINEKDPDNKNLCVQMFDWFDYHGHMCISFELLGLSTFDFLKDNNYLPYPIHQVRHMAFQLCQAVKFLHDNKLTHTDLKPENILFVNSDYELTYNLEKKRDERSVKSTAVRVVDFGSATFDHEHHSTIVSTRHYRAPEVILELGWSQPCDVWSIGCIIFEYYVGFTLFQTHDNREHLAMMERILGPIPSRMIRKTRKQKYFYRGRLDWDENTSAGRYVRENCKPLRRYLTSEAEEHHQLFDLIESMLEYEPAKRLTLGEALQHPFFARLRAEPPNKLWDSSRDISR
Sequence of Dual specificity protein kinase CLK1 (P49759 whole entry): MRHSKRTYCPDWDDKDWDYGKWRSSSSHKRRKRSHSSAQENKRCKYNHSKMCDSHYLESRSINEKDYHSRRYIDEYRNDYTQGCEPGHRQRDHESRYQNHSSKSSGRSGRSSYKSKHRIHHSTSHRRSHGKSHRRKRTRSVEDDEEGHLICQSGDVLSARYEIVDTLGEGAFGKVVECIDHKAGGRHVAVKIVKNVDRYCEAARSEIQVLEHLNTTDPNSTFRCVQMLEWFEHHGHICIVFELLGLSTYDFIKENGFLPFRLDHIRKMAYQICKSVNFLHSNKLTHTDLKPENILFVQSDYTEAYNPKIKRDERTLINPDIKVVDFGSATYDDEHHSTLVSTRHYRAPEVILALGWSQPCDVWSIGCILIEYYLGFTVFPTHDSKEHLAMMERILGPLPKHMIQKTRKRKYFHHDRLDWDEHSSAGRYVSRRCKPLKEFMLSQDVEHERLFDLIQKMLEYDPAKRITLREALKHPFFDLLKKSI
Sequence of Cyclin-dependent kinase 7 (P50613 whole entry): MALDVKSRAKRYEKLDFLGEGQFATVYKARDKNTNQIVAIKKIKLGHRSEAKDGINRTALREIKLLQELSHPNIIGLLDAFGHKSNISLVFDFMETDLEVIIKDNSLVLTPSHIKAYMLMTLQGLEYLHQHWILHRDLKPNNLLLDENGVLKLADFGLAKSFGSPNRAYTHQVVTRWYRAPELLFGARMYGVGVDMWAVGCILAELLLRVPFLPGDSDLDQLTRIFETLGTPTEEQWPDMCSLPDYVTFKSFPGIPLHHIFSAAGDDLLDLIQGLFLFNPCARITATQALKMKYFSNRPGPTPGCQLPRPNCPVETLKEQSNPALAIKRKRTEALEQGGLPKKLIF

OCCN1CCC(C2CCN(c3nc(NCc4ccc(F)c(Cl)c4)c4ncn(CC5CC5)c4n3)CC2)CC1
Activity (MDA-MB-231 [1]): ~100% | Activity (MDA-MB-231 [2]): 96.3% | inhibition (MDA-MB-231 [3]): Active | Activity (MDA-MB-231 [4]): Active | IC50 at 48 h [5]: 4.32 µM | Activity (MDA-MB-231 [6]): Active | Activity (MDA-MB-231 [7]): Active | IC50 (PC-3): 2.43 µM | Activity (MDA-MB-231 [8]): 23.48 um | IC50 [9]: 0.296 µM | IC50 (A549): 2.12 µM | Activity (MDA-MB-231 [10]): >95% | IC50 (K562): 0.32 µM | inhibition [11]: Active | Activity (MDA-MB-231 [12]): ~100% | Activity (MDA-MB-231 [13]): Active | IC50 [14]: 3.89 µM | Activity (Cell membrane): 24.5% | Activity (MDA-MB-231 [15]): 97.1% | Activity (MDA-MB-231 [16]): 83.5% | IC50 (MDA-MB-468): 2.82 µM | IC50 at 48 h [17]: 4.26 µM | IC50 [18]: 2.32 µM | IC50 [19]: 2.97 µM | Activity (MDA-MB-231 [20]): Active | Activity (MDA-MB-231 [21]): Active | Activity (MDA-MB-231 [22]): >95% | Activity (HUVEC): Active | Activity (MDA-MB-231 [23]): Active | IC50 [24]: 0.194 µM | IC50 (HT-29): 4.16 µM | Activity (MDA-MB-231 [25]): >95% | inhibition [26]: Active | Activity (MDA-MB-231 [27]): Active | IC50 (MDA-MB-231 [28]): 3.15 µM | inhibition [29]: Active | Activity (MDA-MB-231 [30]): 15.08 um | IC50 (HCT-116): 0.34 µM
